Measurements taken from PubChem BioAssay (NCI).
“And” between values parts separate entries of the source, which are not always exact repeats. Identical values can stand only once.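 Step 1: Grow cells in 96-well plates. Step 2: Expose to compound for 48 hours at 5 concentrations. Step 3: Interpolate endpoints linearly; if unreached, use highest concentration. GI50 marks 50% less growth. TGI is the concentration that stops growth completely.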

Experiments:
Test in all cases: growth of human tumour cells (NCI), 48 h
A498 renal = tested on: A498 renal
EKVX NSCLC = tested on: EKVX NSCLC
HL-60(TB) leukemia = tested on: HL-60(TB) leukemia
OVCAR-4 ovarian = tested on: OVCAR-4 ovarian
SF-539 CNS = tested on: SF-539 CNS
SN12C renal = tested on: SN12C renal
SNB-19 CNS = tested on: SNB-19 CNS
MDA-MB-435 = tested on: MDA-MB-435
PC-3 prostate = tested on: PC-3 prostate
SR leukemia = tested on: SR leukemia

Compound | TGI (A498 renal) | TGI (EKVX NSCLC) | TGI (HL-60(TB) leukemia) | TGI (OVCAR-4 ovarian) | TGI (SF-539 CNS) | TGI (SN12C renal) | TGI (SNB-19 CNS) | GI50 (A498 renal) | GI50 (EKVX NSCLC) | GI50 (MDA-MB-435) | TGI (MDA-MB-435) | GI50 (OVCAR-4 ovarian) | GI50 (PC-3 prostate) | TGI (PC-3 prostate) | GI50 (SF-539 CNS) | GI50 (SNB-19 CNS) | GI50 (SR leukemia) | TGI (SR leukemia) | GI50 (HL-60(TB) leukemia) | GI50 (SN12C renal)
COc1ccc2c(c1)[n+]([O-])c(-c1ccc(OC)c(OC)c1)c(N)[n+]2[O-] | > 100 µM | > 100 µM | > 100 µM | > 100 µM | > 100 µM | > 100 µM | > 100 µM | – | – | – | – | – | – | – | – | – | – | – | – | –
COc1ccc(/C=C/C(=O)c2ccc(O)c(CN3CCN(c4cc5c(cc4F)c(=O)c(C(=O)O)cn5C4CC4)CC3)c2)cc1 | 5.54 µM | > 100 µM | – | > 100 µM | > 100 µM | – | > 100 µM | 1.34 µM | 8.35 µM | 2.17 µM | > 100 µM | 54.9 µM | 1.39 µM | > 100 µM | 0.407 µM | 0.785 µM | 0.354 µM | 14.9 µM | – | –
O=c1c2ccccc2c(=O)n2n1CC=CC2 | > 100 µM | > 100 µM | > 100 µM | > 100 µM | > 100 µM | > 100 µM | > 100 µM | – | – | – | – | – | – | – | – | – | – | – | – | –
O=[N+]([O-])c1ccc2c(c1)Cc1cc(N=Cc3ccc4c(c3)OCO4)ccc1-2 | > 100 µM | > 100 µM | > 100 µM | > 100 µM | > 100 µM | > 100 µM | > 100 µM | – | – | – | > 100 µM | – | – | > 100 µM | – | – | – | – | – | –
c1csc(-c2cn3nc(-c4c[nH]c5ccccc45)sc3n2)c1 | 23.6 µM | > 100 µM | 20.9 µM | > 100 µM | 4.6 µM | > 100 µM | > 100 µM | 5.97 µM | 1.99 µM | 0.225 µM | 0.685 µM | 4.42 µM | 2.07 µM | > 100 µM | 1.49 µM | 2.56 µM | – | – | 0.76 µM | 1.15 µM
Clc1ccc(N=Nc2nc3ccccc3nc2N=Nc2ccc(Cl)cc2Cl)c(Cl)c1 | > 100 µM | > 100 µM | 90 µM | > 100 µM | > 100 µM | > 100 µM | > 100 µM | – | – | – | – | – | – | – | – | – | – | > 100 µM | – | –
CCN(CC)CCOc1ccc(CCc2cc(OC)c(OC)c(OC)c2)cc1 | 98.7 µM | > 100 µM | 44.4 µM | > 100 µM | > 100 µM | > 100 µM | > 100 µM | – | – | – | – | – | – | – | – | – | – | > 100 µM | – | –
COc1cc([C@@H]2c3cc4c(cc3[C@@H](OC(=O)c3ccc(N)cc3)C3COC(=O)[C@@H]32)OCO4)cc(OC)c1O (stereo partly specified) | 31.5 µM | > 95 µM | 22.2 µM | > 95 µM | 7.99 µM | 40.1 µM | > 95 µM | – | – | – | – | – | – | – | – | – | – | – | – | –
O=C1C2C3C=C4c5ccccc5N(c5ccccc5)C4(C2C(=O)N1c1ccc(Cl)cc1)[C@H]1C(=O)N(c2ccc(Cl)cc2)C(=O)[C@@H]31 (stereo partly specified) | > 100 µM | > 100 µM | > 100 µM | > 100 µM | > 100 µM | > 100 µM | > 100 µM | – | – | – | – | – | – | – | – | – | – | > 100 µM | – | –
c1ccc(C(c2ccccc2)c2cccnc2)cc1 | > 100 µM | > 100 µM | – | > 100 µM | > 100 µM | > 100 µM | > 100 µM | – | – | – | – | – | – | – | – | – | – | – | – | –
COC(=O)/C(=N\NC(=O)C[N+](C)(C)C)C(C(=O)OC)C(=O)C(=O)Nc1ccccc1C(N)=O (stereo unspecified) | > 100 µM | > 100 µM | > 100 µM | > 100 µM | > 100 µM | > 100 µM | > 100 µM | – | – | – | – | – | – | – | – | – | – | > 100 µM | – | –
O=C(NC(=O)c1cn(CCN(CCO)C(=O)NCCCCCCNC(=O)N(CCO)CCn2cc(C(=O)NC(=O)OCc3ccccc3)c(=O)[nH]c2=O)c(=O)[nH]c1=O)OCc1ccccc1 | – | > 100 µM | > 100 µM | > 100 µM | > 100 µM | > 100 µM | > 100 µM | – | – | – | – | – | – | – | – | – | – | – | – | –
COc1cc(NC(C)CCCN)c2ncccc2c1 (stereo unspecified) | > 100 µM | > 100 µM | > 37.3 µM and 28.9 µM | > 100 µM | > 100 µM | > 100 µM | > 100 µM | 30.6 µM and 76.7 µM | – | – | > 100 µM | – | – | > 100 µM | – | 39.8 µM and > 100 µM | – | – | – | 41.4 µM and > 84.4 µM
CN1CCN(CCOc2ccc(-c3cnc4c(-c5ccc(C(F)(F)F)cc5)cnn4c3)cc2)CC1 | 2.76 µM | 2.97 µM | – | 2.48 µM | 3.04 µM | 3.1 µM | 3.22 µM | 1.37 µM | 1.51 µM | 1.61 µM | 3.02 µM | 1.16 µM | 1.43 µM | 2.86 µM | 1.64 µM | 1.72 µM | – | – | – | 1.66 µM
NC(=O)c1ccc(I)c(N=O)c1 | – | > 100 µM | 85.5 µM | 43.5 µM | > 100 µM | > 100 µM | > 100 µM | – | 81.1 µM | 29.6 µM | 89.5 µM | 17.7 µM | – | – | 32.3 µM | > 100 µM | 40.6 µM | > 100 µM | 29 µM | 55.8 µM
COC1/C=C/C(C)C(C(C)C(OC)C(C)CCC(=O)C(C)C(C/C=C/N(C)C=O)OC)OC(=O)/C=C/C=C(\C)CC(OC)CC2=CC(=O)O[C@H](C2)C(C)C(OC)CC(OC)/C=C/C(C)C(OC)C1 (stereo partly specified) | 0.0508 µM | 0.869 µM and 0.362 µM | – | – | – | 47.5 µM | 0.212 µM and 0.0904 µM | 0.0176 µM | 0.123 µM | 0.0303 µM | 0.472 µM and 0.311 µM | 0.0108 µM | – | 0.0387 µM and 0.0417 µM | – | 0.052 µM | 0.00311 µM | – | – | 0.143 µM
CC(=O)C(=Cc1ccc(C=C(C(C)=O)C(C)=O)cc1)C(C)=O | 9.03 µM | 8.76 µM | 4.52 µM | 6.76 µM | 4.03 µM | 3.07 µM | 5.46 µM | – | – | – | 5.66 µM | – | – | 5.17 µM | – | – | – | – | – | –
Cc1ccc(SSc2ccc(C)cc2C(=O)O)c(C(=O)O)c1 | > 100 µM | > 100 µM | > 100 µM | > 100 µM | > 100 µM | > 100 µM | > 100 µM | – | – | – | – | – | – | – | – | – | – | > 100 µM | – | –
N.N.N.N.N.[Cl-].[Co+3].c1ccc(-c2nn[n-]n2)cc1 | – | > 100 µM | > 100 µM | > 100 µM | > 100 µM | > 100 µM | > 100 µM | – | > 100 µM | – | – | > 100 µM | – | – | > 100 µM | > 100 µM | > 100 µM | > 100 µM | > 100 µM | > 100 µM
